Source: US11464770B2, “Anticancer pharmaceutical composition” (NATIONAL CANCER CENTER, priority 2016, dated 2022)
Read-outs that look alike come from different tables or passages of the source.

How the values were obtained:
[1] = test system: lung cancer cell lines (e.g. NCI-H23, NCI-H1229); test: Cell based assay, cell viability (CellTiter-Glo), lung cancer cell lines; settings: Homo sapiens, 72 hours treatment, CellTiter-Glo
Procedure, shortened: (§1)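 Trypsin-EDTA-detached lines seeded; 24 h later compound added (final 0–2 μM); 72 h exposure; ATP luminescence viability readout.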

[2] = test system: prostate cancer cell lines (e.g. DU145/TXR); test: Cell based assay, cell viability (CellTiter-Glo), prostate cancer cell lines; settings: Homo sapiens, 72 hours treatment, final concentration 0 to 2 μM
Procedure, shortened: as §1

neuroblastoma cell lines = test: Cell based assay, cell viability (CellTiter-Glo), neuroblastoma cell lines; settings: Homo sapiens; SH-SY5Y cell line
Procedure, shortened: as §1

brain cancer cell lines = test: Cell based assay, cell viability (CellTiter-Glo), brain cancer cell lines; settings: Homo sapiens
renal cancer cell lines = test: Cell based assay, cell viability (CellTiter-Glo), renal cancer cell lines; settings: Homo sapiens; ACHN cells
Procedure, shortened: as §1

liver cancer cell lines = test: Cell based assay, cell viability (CellTiter-Glo), liver cancer cell lines; settings: Homo sapiens, SK-HEP1; SK-HEP-1 cell line
Procedure, shortened: as §1

[3] = test system: ovarian cancer cell lines; test: Cell based assay, cell viability (CellTiter-Glo), ovarian cancer cell lines; settings: Homo sapiens; OVCAR-3 cells
Procedure, shortened: as §1

[4] = A549 cells, read-out: IC50, lung cancer cell line A549
[5] = DMS 114 cells, read-out: IC50, lung cancer cell line DMS 114
[6] = NCI-H23 cells, read-out: IC50, lung cancer cell line NCI-H23
[7] = NCI-H460 cells, read-out: IC50, lung cancer cell line NCI-H460
[8] = NCI-H522 cells, read-out: IC50, lung cancer cell line NCI-H522
[9] = NCI-H1299 cells, read-out: IC50, lung cancer cell line NCI-H1299
[10] = NCI-H1437 cells, read-out: IC50, lung cancer cell line NCI-H1437
[11] = CWR22 cells, read-out: IC50, prostate cancer cell line CWR22
[12] = DU-145, DU145 cells, read-out: IC50, prostate cancer cell line DU145
[13] = LNcap cells, read-out: IC50, prostate cancer cell line LNcap
[14] = PC-3 cells, read-out: IC50, prostate cancer cell line PC-3
[15] = U138-MG, U-138 MG cell line, read-out: IC50, Brain cancer cell line U-138 MG
[16] = T98G cell line, read-out: IC50, Brain cancer cell line T98G
[17] = U-251 MG cell line, read-out: IC50, Brain cancer cell line U-251 MG
[18] = DU-145, DU145/TXR cells, read-out: IC50, prostate cancer cell line DU145/TXR

SMILES	IC50 [1, 4] [nM]	IC50 [1, 5] [nM]	IC50 ([1]; MRC-5 cells, read-out: IC50) [nM]	IC50 [1, 6] [nM]	IC50 [1, 7] [nM]	IC50 [1, 8] [nM]	IC50 [1, 9] [nM]	IC50 [1, 10] [nM]	IC50 [2, 11] [nM]	IC50 [2, 12] [nM]	IC50 [2, 13] [nM]	IC50 [2, 14] [nM]	IC50 (neuroblastoma cell lines) [nM]	IC50 (brain cancer cell lines; [15]) [nM]	IC50 (brain cancer cell lines; [16]) [nM]	IC50 (brain cancer cell lines; [17]) [nM]	IC50 (renal cancer cell lines) [nM]	IC50 (liver cancer cell lines) [nM]	IC50 [3] [nM]	IC50 [2, 18] [nM]
CC(=O)c1c([S+]([O-])Cc2ccc(F)cc2F)[nH]c2c(Br)ccc(Cl)c2c1=O (centres unmarked) [Compound 29, 3-acetyl-8-bromo-5-chloro-2-((2,4-difluorobenzyl)sulfinyl)quinolin-4(1H)-one]	> 2000	> 2000	> 2000	910	1770	> 2000	1420	> 10000	1770	1730	1550	1460	> 2000	1380	> 10000	1140	> 2000	1030	800	–
CC(=O)c1c([S+]([O-])Cc2ccc(F)c(Cl)c2)[nH]c2c(Br)ccc(Cl)c2c1=O (centres unmarked) [Compound 31, 3-acetyl-8-bromo-5-chloro-2-((3-chloro-4-fluorobenzyl)sulfinyl)quinolin-4(1H)-one]	1720	> 2000	> 2000	810	1420	> 2000	1220	> 10000	1590	1440	1640	1410	> 2000	1790	> 10000	1090	> 2000	–	710	930
CC(=O)c1c([S+]([O-])Cc2ccc([N+](=O)[O-])cc2)[nH]c2c(Br)ccc(Cl)c2c1=O (centres unmarked) [Compound 33, 3-acetyl-8-bromo-5-chloro-2-((4-nitrobenzyl)sulfinyl)quinolin-4(1H)-one]	> 2000	> 2000	820	860	1780	> 2000	1380	> 10000	1340	1630	1840	1580	> 2000	> 2000	> 10000	1110	> 2000	1080	1180	1340
CC(=O)c1c(S(=O)(=O)Cc2ccccc2)[nH]c2c(Br)ccc(Cl)c2c1=O [Compound 34, 3-acetyl-2-(benzylsulfonyl)-8-bromo-5-chloroquinolin-4(1H)-one]	> 2000	> 2000	> 2000	1390	> 2000	> 2000	2000	> 10000	> 2000	> 2000	–	–	> 2000	> 2000	> 10000	> 2000	> 2000	1720	990	1590
CC(=O)c1c([S+]([O-])Cc2cc(Cl)ccc2Cl)[nH]c2c(Br)ccc(Cl)c2c1=O (centres unmarked) [Compound 44, 3-acetyl-8-bromo-5-chloro-2-((2,5-dichlorobenzyl)sulfinyl)quinolin-4(1H)-one]	1870	> 2000	960	960	1750	> 2000	1280	> 10000	1580	1600	1980	1490	> 2000	> 2000	> 10000	1050	> 2000	940	840	1000
CC(=O)c1c([S+]([O-])Cc2cc(F)cc(F)c2)[nH]c2c(Br)ccc(Cl)c2c1=O (centres unmarked) [Compound 46, 3-acetyl-8-bromo-5-chloro-2-((3,5-difluorobenzyl)sulfinyl)quinolin-4(1H)-one]	> 2000	> 2000	> 2000	1270	> 2000	> 2000	1870	> 10000	> 2000	> 2000	> 2000	> 2000	> 2000	> 2000	> 10000	> 2000	> 2000	1310	1020	1560
CC(=O)c1c([S+]([O-])Cc2cccc(F)c2)[nH]c2c(Br)ccc(Cl)c2c1=O (centres unmarked) [Compound 50, 3-acetyl-8-bromo-5-chloro-2-((3-fluorobenzyl)sulfinyl)quinolin-4(1H)-one]	> 2000	> 2000	> 2000	1140	> 2000	> 2000	1940	> 10000	> 2000	1770	> 2000	1600	> 2000	> 2000	> 10000	1280	> 2000	1350	890	1280
CC(=O)c1c([S+]([O-])Cc2cc(C)on2)[nH]c2c(Br)ccc(Cl)c2c1=O (centres unmarked) [Compound 51, 3-acetyl-8-bromo-5-chloro-2-(((5-methylisoxazol-3-yl)methyl)sulfinyl)quinolin-4(1H)-one]	> 2000	> 2000	580	770	1620	1730	–	> 10000	1030	1240	1240	1360	> 2000	1920	> 10000	> 2000	> 2000	1310	850	1120
COc1cccc(C[S+]([O-])c2[nH]c3c(Br)ccc(Cl)c3c(=O)c2C(C)=O)c1 (centres unmarked) [Compound 55, 3-acetyl-8-bromo-5-chloro-2-((3-methoxybenzyl)sulfinyl)quinolin-4(1H)-one]	> 2000	> 2000	> 2000	1280	> 2000	> 2000	> 2000	> 10000	> 2000	> 2000	> 2000	1930	> 2000	> 2000	> 10000	> 2000	> 2000	1430	920	1390
CC(=O)c1c([S+]([O-])Cc2c(F)c(F)c(F)c(F)c2F)[nH]c2c(Br)ccc(Cl)c2c1=O (centres unmarked) [Compound 78, 3-acetyl-8-bromo-5-chloro-2-(((perfluorophenyl)methyl)sulfinyl)quinolin-4(1H)-one]	> 2000	> 2000	1500	1340	> 2000	> 2000	1810	> 10000	> 2000	1150	> 2000	1530	> 2000	> 2000	> 10000	> 2000	> 2000	–	1010	1380
